In patent US8283323B2, “Withanolide compounds as inhibitors of fibrosis and identification of molecular targets for anti-fibrotic drug development” (University of Kentucky Research Foundation, priority 2006, dated 2012):

Key:
[1] = system: cornea injured by 0.1 N sodium hydroxide (corneal opacity, neovascularization); experiment: alkali burn corneal injury model, digital images of corneas; type: in vivo, C57BL6 mice; settings: 2.5 mg/kg/d i.p. daily for 6 d after alkali burn, versus vehicle (DMSO)
Method: (§1) The corneas of C57BL6 mice under anesthesia were injured by application of 0.1 N sodium hydroxide and subsequently the epithelial cell layer from the cornea and limbus was removed by scraping. Withaferin A (WA) (2.5 mg/kg/d; 4 mice) or vehicle (DMSO; 4 mice) was provided daily thereafter by i.p. injection for 6 d. Digital images of the corneas were obtained to assess the extent of tissue pathology. […] These compelling results invoke the query whether WA targets the UPP in vivo. Mice (4 per group) were injured and treated for the first 4 days with a different dose of WA or vehicle daily by i.p. injection. On day 7, mice were sacrificed and corneal buttons were isolated from injured healing corneas; equal amounts of protein from each group were analyzed by western blotting. Uninjured fellow eyes from vehicle-treated mice served as controls.

HO-1 = experiment: western blotting of corneal buttons from injured healing corneas: HO-1; type: in vivo, mice; settings: i.p. daily for first 4 days, corneas taken day 7, western blot
Method: as §1

[2] = system: ubiquitinated transketolase (70 kDa ubiquitinated protein); experiment: immunoblotting / Coomassie blue staining of corneal protein, angioinflammation corneal model: ubiquitinated transketolase; type: in vivo, mice
Method: (§2) To investigate the levels and timing of expression of TKT we performed time-course experiments using the angioinflammation corneal model of tissue repair. Groups of mice ([…]) were injured and treated every day with vehicle (Veh), 2.5 mg/kg/d WA or 2.0 mg/kg/d epoxomicin (20S proteasome inhibitor) and sacrificed on day 4 and 6 post-inflammation. In a similar experiment, mice were treated every day with vehicle or 2.5 mg/kg/d WA and sacrificed on days 3 and 5 post-injury. Equal amounts of protein from pooled samples of each group were subjected to immunoblotting or Coomassie blue staining after fractionation on 4-20% gradient polyacrylamide gels (BioRad).
(§3) The western blots of the corneal samples were re-probed with an anti-mouse TKT antibody. […] Because of the strong Ub-immunoreactivity of TKT in injured corneas, we speculate that this protein's N-terminal antigenic site is being masked by ubiquitination in the injury-related samples (the TKT antibody reacts with the N-terminal 20-amino acid portion of native TKT).

transketolase (TKT) = experiment: western blot with anti-mouse TKT antibody and immunohistochemical analysis of mouse eyes; type: in vivo, mice; settings: injured corneas; for TKT detected by anti-mouse TKT antibody on western blot (longer film exposure): WA 2.5 mg/kg/d or epoxomicin 2.0 mg/kg/d, not detected in vehicle
Method: as §2, §3
To investigate the localization of TKT, immunohistochemical analysis of mouse eyes was conducted. TKT expression is localized to the epithelium of uninjured mouse eyes, whereas TKT expression in corneas of 4 d vehicle-treated mice is almost undetectable.

[3] = system: ubiquitin proteasome pathway (UPP); experiment: UPP functions in the alkali burn injury model of corneal angiofibrotic disease; type: in vivo
Description: The abundant corneal protein tissue transketolase (TKT) is believed to play an important role in corneal homeostasis. TKT is also a target of the UPP and its reduced expression is believed to contribute to corneal fibrosis. In the present invention, targeting the UPP in injured tissue can redirect the fibrotic repair process to acquire regenerative healing. Withanolides and related compounds, such as withaferin A, withanolide D and ixocarpalactone, are small molecule inhibitors that have potent UPP-targeting activity. […] There is also a reduction in the levels of ubiquitinated transketolase (TKT), an abundant corneal protein implicated in fibrogenesis.

native I-kappa-B-alpha = experiment: western blotting of corneal buttons from injured healing corneas: I-kappa-B-alpha; type: in vivo, mice; settings: different doses i.p. daily for first 4 days, corneas taken day 7, western blot
Method: as §1

SMILES	corneal opacity [1]	neovascularization (growth of new blood vessels in cornea) [1]	HO-1 expression in cornea (HO-1)	expression of 70 kDa ubiquitinated protein (UbTKT) in cornea, ubiquitin immunoblot ([2]; 2.5 mg/kg/d every day, injured corneas, versus vehicle)	levels of the 70 kDa protein by Coomassie blue staining ([2]; uninjured, vehicle and WA-treated samples, 3-, 5-, 4- and 6-day time-points)	TKT staining in cornea, immunohistochemical analysis (transketolase (TKT); 4 d, compared with uninjured and vehicle-treated)	TKT detected by anti-mouse TKT antibody on western blot (longer film exposure) (transketolase (TKT))	UPP functions [3]	corneal expression of native I-kappa-B-alpha (native I-kappa-B-alpha)
CC1=C(CO)C(=O)O[C@@H]([C@@H](C)[C@H]2CC[C@H]3[C@@H]4C[C@H]5O[C@]56[C@@H](O)C=CC(=O)[C@]6(C)[C@H]4CC[C@]23C)C1 [WA, Withaferin A]	dramatically reduced	dramatically reduced	potently downregulated HO-1 expression to almost undetectable levels	abundantly expressed in vehicle-treated mouse corneas compared to corneas from WA-treated mice	not significantly altered	present, although at levels lower than that of uninjured cornea	presence of the TKT	potent downregulation	dose-dependently inhibits
CC[C@H](C)[C@H](NC(=O)[C@H]([C@@H](C)CC)N(C)C(C)=O)C(=O)N[C@H](C(=O)N[C@@H](CC(C)C)C(=O)[C@@]1(C)CO1)[C@@H](C)O [epoxomicin, reference compound]							presence of the TKT		
